Measured values as given in ChEMBL document CHEMBL2202954, “The effect of PLC-γ2 inhibitors on the growth of human tumour cells” (2012).

Tests used:
Format in all cases: functional
[1] = Cytotoxicity against human NCI-ADR-RES cells assessed as cellular growth at 10 uM by SRB assay
T47D = experiment: Cytotoxicity against human T47D cells assessed as cellular growth at 10 uM by SRB assay
A498 = experiment: Cytotoxicity against human A498 cells assessed as cellular growth at 10 uM by SRB assay
MDA-MB-231 = experiment: Cytotoxicity against human MDA-MB-231 cells assessed as cellular growth at 10 uM by SRB assay
KM12 = experiment: Cytotoxicity against human KM12 cells assessed as cellular growth at 10 uM by SRB assay
NCI-H460 = experiment: Cytotoxicity against human NCI-H460 cells assessed as cellular growth at 10 uM by SRB assay
UACC-62 = experiment: Cytotoxicity against human UACC62 cells assessed as cellular growth at 10 uM by SRB assay
SK-MEL-28 = experiment: Cytotoxicity against human SK-MEL-28 cells assessed as cellular growth at 10 uM by SRB assay
SNB-19 = experiment: Cytotoxicity against human SNB19 cells assessed as cellular growth at 10 uM by SRB assay
MDA-MB-468 = experiment: Cytotoxicity against human MDA-MB-468 cells assessed as cellular growth at 10 uM by SRB assay
HCT-116 = experiment: Cytotoxicity against human HCT116 cells assessed as cellular growth at 10 uM by SRB assay
HOP-62 = experiment: Cytotoxicity against human HOP62 cells assessed as cellular growth at 10 uM by SRB assay
SF-268 = experiment: Cytotoxicity against human SF268 cells assessed as cellular growth at 10 uM by SRB assay
SN12C = experiment: Cytotoxicity against human SN12C cells assessed as cellular growth at 10 uM by SRB assay
HCT-15 = experiment: Cytotoxicity against human HCT15 cells assessed as cellular growth at 10 uM by SRB assay
NCI-H522 = experiment: Cytotoxicity against human NCI-H522 cells assessed as cellular growth at 10 uM by SRB assay
BT-549 = experiment: Cytotoxicity against human BT549 cells assessed as cellular growth at 10 uM by SRB assay
MDA-MB-435 = experiment: Cytotoxicity against human MDA-MB-435 cells assessed as cellular growth at 10 uM by SRB assay
SF-295 = experiment: Cytotoxicity against human SF295 cells assessed as cellular growth at 10 uM by SRB assay
SNB-75 = experiment: Cytotoxicity against human SNB75 cells assessed as cellular growth at 10 uM by SRB assay
DU-145 = experiment: Cytotoxicity against human DU145 cells assessed as cellular growth at 10 uM by SRB assay
SK-OV-3 = experiment: Cytotoxicity against human SKOV3 cells assessed as cellular growth at 10 uM by SRB assay
SK-MEL-5 = experiment: Cytotoxicity against human SK-MEL-5 cells assessed as cellular growth at 10 uM by SRB assay
ACHN = experiment: Cytotoxicity against human ACHN cells assessed as cellular growth at 10 uM by SRB assay
Hs-578T = experiment: Cytotoxicity against human Hs578T cells assessed as cellular growth at 10 uM by SRB assay
U-251 = experiment: Cytotoxicity against human U251 cells assessed as cellular growth at 10 uM by SRB assay
HT-29 = experiment: Cytotoxicity against human HT-29 cells assessed as cellular growth at 10 uM by SRB assay
HL-60(TB) = experiment: Cytotoxicity against human HL-60(TB) cells assessed as cellular growth at 10 uM by SRB assay
CCRF-CEM = experiment: Cytotoxicity against human CCRF-CEM cells assessed as cellular growth at 10 uM by SRB assay
A549 = experiment: Cytotoxicity against human A549 cells assessed as cellular growth at 10 uM by SRB assay
K562 = experiment: Cytotoxicity against human K562 cells assessed as cellular growth at 10 uM by SRB assay
NCI-H226 = experiment: Cytotoxicity against human NCI-H226 cells assessed as cellular growth at 10 uM by SRB assay
OVCAR-8 = experiment: Cytotoxicity against human OVCAR8 cells assessed as cellular growth at 10 uM by SRB assay
RPMI-8226 = experiment: Cytotoxicity against human RPMI8226 cells assessed as cellular growth at 10 uM by SRB assay
CAKI-1 = experiment: Cytotoxicity against human Caki1 cells assessed as cellular growth at 10 uM by SRB assay
COLO 205 = experiment: Cytotoxicity against human COLO205 cells assessed as cellular growth at 10 uM by SRB assay
PC-3 = experiment: Cytotoxicity against human PC3 cells assessed as cellular growth at 10 uM by SRB assay
TK-10 = experiment: Cytotoxicity against human TK10 cells assessed as cellular growth at 10 uM by SRB assay
LOX IMVI = experiment: Cytotoxicity against human LOXIMVI cells assessed as cellular growth at 10 uM by SRB assay
HOP-92 = experiment: Cytotoxicity against human HOP92 cells assessed as cellular growth at 10 uM by SRB assay
SW-620 = experiment: Cytotoxicity against human SW620 cells assessed as cellular growth at 10 uM by SRB assay
MCF7 = experiment: Cytotoxicity against human MCF7 cells assessed as cellular growth at 10 uM by SRB assay
UACC-257 = experiment: Cytotoxicity against human UACC257 cells assessed as cellular growth at 10 uM by SRB assay
RXF 393 = experiment: Cytotoxicity against human RXF393 cells assessed as cellular growth at 10 uM by SRB assay
OVCAR-3 = experiment: Cytotoxicity against human OVCAR3 cells assessed as cellular growth at 10 uM by SRB assay
M14 = experiment: Cytotoxicity against human M14 cells assessed as cellular growth at 10 uM by SRB assay
786-0 = experiment: Cytotoxicity against human 786-0 cells assessed as cellular growth at 10 uM by SRB assay
SK-MEL-2 = experiment: Cytotoxicity against human SK-MEL-2 cells assessed as cellular growth at 10 uM by SRB assay
UO-31 = experiment: Cytotoxicity against human UO31 cells assessed as cellular growth at 10 uM by SRB assay
NCI-H23 = experiment: Cytotoxicity against human NCI-H23 cells assessed as cellular growth at 10 uM by SRB assay
EKVX = experiment: Cytotoxicity against human EKVX cells assessed as cellular growth at 10 uM by SRB assay
OVCAR-5 = experiment: Cytotoxicity against human OVCAR5 cells assessed as cellular growth at 10 uM by SRB assay
SF-539 = experiment: Cytotoxicity against human SF539 cells assessed as cellular growth at 10 uM by SRB assay
NCI-H322M = experiment: Cytotoxicity against human NCI-H322M cells assessed as cellular growth at 10 uM by SRB assay
HCC 2998 = experiment: Cytotoxicity against human HCC2998 cells assessed as cellular growth at 10 uM by SRB assay
SR = experiment: Cytotoxicity against human SR cells assessed as cellular growth at 10 uM by SRB assay
MOLT-4 = experiment: Cytotoxicity against human MOLT4 cells assessed as cellular growth at 10 uM by SRB assay
IGROV-1 = experiment: Cytotoxicity against human IGROV1 cells assessed as cellular growth at 10 uM by SRB assay
Malme-3M = experiment: Cytotoxicity against human MALME-3M cells assessed as cellular growth at 10 uM by SRB assay

CC1(C)CCc2cc(-c3ccn(S(=O)(=O)c4ccc(Cl)cc4)n3)ccc2O1
Activity [1]: 69.31% | Activity (T47D): 54.12% | Activity (A498): 70.82% | Activity (MDA-MB-231): 76.35% | Activity (KM12): 77% | Activity (NCI-H460): 73.79% | Activity (UACC-62): 75.03% | Activity (SK-MEL-28): 94.67% | Activity (SNB-19): 100.09% | Activity (MDA-MB-468): 48.91% | Activity (HCT-116): 61.1% | Activity (HOP-62): 92.92% | Activity (SF-268): 90.72% | Activity (SN12C): 72.79% | Activity (HCT-15): 91.33% | Activity (NCI-H522): 66.19% | Activity (BT-549): 88.83% | Activity (MDA-MB-435): 85.81% | Activity (SF-295): 78.68% | Activity (SNB-75): 92.32% | Activity (DU-145): 88.3% | Activity (SK-OV-3): 91.35% | Activity (SK-MEL-5): 47.2% | Activity (ACHN): 89.36% | Activity (Hs-578T): 99.49% | Activity (U-251): 74.2% | Activity (HT-29): 70.86% | Activity (HL-60(TB)): 71.91% | Activity (CCRF-CEM): 64.16% | Activity (A549): 67.37% | Activity (K562): 52.43% | Activity (NCI-H226): 74.42% | Activity (OVCAR-8): 86.61% | Activity (RPMI-8226): 52.06% | Activity (CAKI-1): 64.29% | Activity (COLO 205): 116.9% | Activity (PC-3): 56.8% | Activity (TK-10): 76.99% | Activity (LOX IMVI): 72.15% | Activity (HOP-92): 8% | Activity (SW-620): 87.74% | Activity (MCF7): 71.27% | Activity (UACC-257): 64.88% | Activity (RXF 393): 89.02% | Activity (OVCAR-3): 84.01% | Activity (M14): 80.11% | Activity (786-0): 71.44% | Activity (SK-MEL-2): 92.25% | Activity (UO-31): 75.63% | Activity (NCI-H23): 65.48% | Activity (EKVX): 54.5% | Activity (OVCAR-5): 100.71% | Activity (SF-539): 101.35% | Activity (NCI-H322M): 94.19% | Activity (HCC 2998): 94.3% | Activity (SR): 45.51% | Activity (MOLT-4): 65.38%

CC1(C)CCc2cc(-c3ccn(S(=O)(=O)c4ccccc4Cl)n3)ccc2O1
Activity [1]: 78.37% | Activity (T47D): 58.8% | Activity (A498): 71.86% | Activity (MDA-MB-231): 99.59% | Activity (KM12): 62.1% | Activity (NCI-H460): 79.3% | Activity (UACC-62): 81.14% | Activity (SK-MEL-28): 99.8% | Activity (SNB-19): 88.07% | Activity (MDA-MB-468): 63.67% | Activity (HCT-116): 68.63% | Activity (HOP-62): 96.86% | Activity (IGROV-1): 113.61% | Activity (SF-268): 96.38% | Activity (SN12C): 75.88% | Activity (Malme-3M): 98.68% | Activity (HCT-15): 46.19% | Activity (NCI-H522): 77.85% | Activity (BT-549): 99.65% | Activity (MDA-MB-435): 98.73% | Activity (SNB-75): 99.11% | Activity (DU-145): 93.97% | Activity (SK-OV-3): 91.9% | Activity (SK-MEL-5): 75.14% | Activity (ACHN): 98.39% | Activity (Hs-578T): 102.19% | Activity (U-251): 67.67% | Activity (HT-29): 33.37% | Activity (HL-60(TB)): 81.19% | Activity (CCRF-CEM): 59.83% | Activity (A549): 80.53% | Activity (K562): 43% | Activity (NCI-H226): 90.58% | Activity (OVCAR-8): 89.74% | Activity (RPMI-8226): 70.97% | Activity (CAKI-1): 101.05% | Activity (COLO 205): 88.88% | Activity (PC-3): 70.67% | Activity (TK-10): 74.57% | Activity (LOX IMVI): 83.91% | Activity (HOP-92): 49.12% | Activity (SW-620): 79.15% | Activity (MCF7): 73.21% | Activity (UACC-257): 99.38% | Activity (RXF 393): 93.11% | Activity (OVCAR-3): 93.06% | Activity (M14): 78.84% | Activity (786-0): 71.72% | Activity (SK-MEL-2): 102.25% | Activity (UO-31): 90.06% | Activity (NCI-H23): 76.98% | Activity (EKVX): 67.03% | Activity (OVCAR-5): 92.37% | Activity (SF-539): 87.92% | Activity (NCI-H322M): 126.42% | Activity (HCC 2998): 81.67% | Activity (SR): 72.9% | Activity (MOLT-4): 64.66%
